Reference: patent US20100227858A1, “TRISUBSTITUTED PYRIMIDINE DERIVATIVES FOR THE TREATMENT OF PROLIFERATIVE DISEASES” (ASTRAZENECA AB, priority 2007, published 2010)
Several values for one entry are separate records, joined by “and”; a condition that tells them apart may be missing. Equal entries are not always repeated. Where two headings read alike, the source gives them in different places.

Assays:
recombinant mTOR = recombinant mTOR (Homo sapiens, UniProt P42345); experiment: In vitro mTOR kinase assay, Test (a)(i) (AlphaScreen); type: biochemical
Description: (a)(i) In Vitro mTOR Kinase Assay
The HEK293 FLAG-tagged mTOR (1362-2549) stable cell line was routinely maintained at 37° C. with 5% CO2 up to a confluency of 70-90% in Dulbecco's modified Eagle's growth medium (DMEM; Invitrogen Limited, Paisley, UK Catalogue No. 41966-029) containing 10% heat-inactivated foetal calf serum (FCS; Sigma, Poole, Dorset, UK, Catalogue No. F0392), 1% L-glutamine (Gibco, Catalogue No. 25030-024) and 2 mg/ml Geneticin (G418 sulfate; Invitrogen Limited, UK Catalogue No. 10131-027). Following expression in the mammalian HEK293 cell line, expressed protein was purified using the FLAG epitope tag using standard purification techniques.
A 30 μl mixture of recombinant purified mTOR enzyme, 1 μM biotinylated peptide substrate (Biotin-Ahx-[…]NH2; Bachem UK Ltd), ATP (20 μM) and a buffer solution [comprising Tris-HCl pH7.4 buffer (50 mM), EGTA (0.1 mM), bovine serum albumin (0.5 mg/mL), DTT (1.25 mM) and manganese chloride (10 mM)] was agitated at room temperature for 90 minutes.
These assay solutions were incubated for 2 hours at room temperature.
Phosphorylated biotinylated peptide is formed in situ as a result of mTOR mediated phosphorylation. The phosphorylated biotinylated peptide that is associated with AlphaScreen Streptavidin donor beads forms a complex with the p70 S6 Kinase (T389) 1A5 Monoclonal Antibody that is associated with Alphascreen Protein A acceptor beads. […] Accordingly, the presence of mTOR kinase activity results in an assay signal. In the presence of an mTOR kinase inhibitor, signal strength is reduced.

PI3K = molecular target: T1, PI3K; experiment: In vitro PI3K enzyme assay, Test (b)(i) (AlphaScreen); type: biochemical, human; conditions: single values measured on two occasions; isoform (p110α or p110γ) not clearly stated; read-out: IC50 versus PI3K, Test (b)(i)
T1 construct: full length DNA of each of the p110α, p110β and p110δ Type Ia human PI3K p110 isoforms
Description: (b)(i) In Vitro PI3K Enzyme Assay

Serine 473 in Akt = experiment: In vitro phospho-Ser473 Akt assay, Test (c); type: cell-based; conditions: Homo sapiens; MDA-MB-468 cells; read-out: IC50 versus Serine 473 in Akt, Test (c)
Description: (c) In Vitro phospho-Ser473 Akt Assay
This assay determines the ability of test compounds to inhibit phosphorylation of Serine 473 in Akt as assessed using Acumen Explorer technology (Acumen Bioscience Limited), a plate reader that can be used to rapidly quantitate features of images generated by laser-scanning.
A MDA-MB-468 human breast adenocarcinoma cell line (LGC Promochem, Teddington, Middlesex, UK, Catalogue No. HTB-132) was routinely maintained at 37° C. with 5% CO2 up to a confluency of 70-90% in DMEM containing 10% heat-inactivated FCS and 1% L-glutamine.
For the assay, the cells were detached from the culture flask using ‘Accutase’ (Innovative Cell Technologies Inc., San Diego, Calif., USA; Catalogue No. AT104) using standard tissue culture methods and resuspended in media to give 1.7×10^5 cells per mL. […]
All subsequent aspiration and wash steps were carried out using a Tecan 96 well plate washer (aspiration speed 10 mm/sec). […] An aliquot of PBS (50 μl) was added to each well and the plates were sealed with black plate sealers and the fluorescence signal was detected and analysed.
Fluorescence dose response data obtained with each compound were analysed and the degree of inhibition of Serine 473 in Akt was expressed as an IC50 value.

[1] = enzyme assay, values may represent the average of two or more measurements, read-out: Test (a)(i) IC50

recombinant mTOR, sequence (P42345 1362-2549): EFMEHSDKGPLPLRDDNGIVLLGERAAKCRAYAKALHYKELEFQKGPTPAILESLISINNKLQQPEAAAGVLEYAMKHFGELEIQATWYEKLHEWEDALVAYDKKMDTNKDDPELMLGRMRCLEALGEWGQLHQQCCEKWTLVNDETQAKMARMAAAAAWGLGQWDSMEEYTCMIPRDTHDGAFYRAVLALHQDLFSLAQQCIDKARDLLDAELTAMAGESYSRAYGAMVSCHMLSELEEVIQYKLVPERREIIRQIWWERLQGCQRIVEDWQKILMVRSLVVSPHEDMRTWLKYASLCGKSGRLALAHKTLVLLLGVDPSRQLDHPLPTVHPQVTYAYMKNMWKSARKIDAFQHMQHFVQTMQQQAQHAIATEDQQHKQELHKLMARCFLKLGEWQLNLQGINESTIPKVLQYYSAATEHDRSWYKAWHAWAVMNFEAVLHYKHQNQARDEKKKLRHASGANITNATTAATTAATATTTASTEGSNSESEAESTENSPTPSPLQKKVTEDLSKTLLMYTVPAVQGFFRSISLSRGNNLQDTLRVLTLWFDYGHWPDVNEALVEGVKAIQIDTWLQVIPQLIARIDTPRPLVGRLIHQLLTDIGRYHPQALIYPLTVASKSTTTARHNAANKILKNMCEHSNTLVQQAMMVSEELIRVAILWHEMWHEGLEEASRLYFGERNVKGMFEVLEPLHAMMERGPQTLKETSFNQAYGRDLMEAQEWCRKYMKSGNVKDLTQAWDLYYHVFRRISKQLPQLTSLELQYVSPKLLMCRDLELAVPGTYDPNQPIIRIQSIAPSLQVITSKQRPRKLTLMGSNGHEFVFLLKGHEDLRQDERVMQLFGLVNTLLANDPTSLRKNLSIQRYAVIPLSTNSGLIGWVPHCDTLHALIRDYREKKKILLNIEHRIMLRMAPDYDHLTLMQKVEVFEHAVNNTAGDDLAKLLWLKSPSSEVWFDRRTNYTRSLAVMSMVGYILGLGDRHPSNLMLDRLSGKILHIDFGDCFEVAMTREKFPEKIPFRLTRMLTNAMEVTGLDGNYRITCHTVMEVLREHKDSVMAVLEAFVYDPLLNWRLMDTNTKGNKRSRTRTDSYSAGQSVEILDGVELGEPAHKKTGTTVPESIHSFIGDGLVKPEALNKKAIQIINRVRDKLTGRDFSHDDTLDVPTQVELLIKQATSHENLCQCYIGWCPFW
T1 sequence (P42336 whole entry, canonical isoform): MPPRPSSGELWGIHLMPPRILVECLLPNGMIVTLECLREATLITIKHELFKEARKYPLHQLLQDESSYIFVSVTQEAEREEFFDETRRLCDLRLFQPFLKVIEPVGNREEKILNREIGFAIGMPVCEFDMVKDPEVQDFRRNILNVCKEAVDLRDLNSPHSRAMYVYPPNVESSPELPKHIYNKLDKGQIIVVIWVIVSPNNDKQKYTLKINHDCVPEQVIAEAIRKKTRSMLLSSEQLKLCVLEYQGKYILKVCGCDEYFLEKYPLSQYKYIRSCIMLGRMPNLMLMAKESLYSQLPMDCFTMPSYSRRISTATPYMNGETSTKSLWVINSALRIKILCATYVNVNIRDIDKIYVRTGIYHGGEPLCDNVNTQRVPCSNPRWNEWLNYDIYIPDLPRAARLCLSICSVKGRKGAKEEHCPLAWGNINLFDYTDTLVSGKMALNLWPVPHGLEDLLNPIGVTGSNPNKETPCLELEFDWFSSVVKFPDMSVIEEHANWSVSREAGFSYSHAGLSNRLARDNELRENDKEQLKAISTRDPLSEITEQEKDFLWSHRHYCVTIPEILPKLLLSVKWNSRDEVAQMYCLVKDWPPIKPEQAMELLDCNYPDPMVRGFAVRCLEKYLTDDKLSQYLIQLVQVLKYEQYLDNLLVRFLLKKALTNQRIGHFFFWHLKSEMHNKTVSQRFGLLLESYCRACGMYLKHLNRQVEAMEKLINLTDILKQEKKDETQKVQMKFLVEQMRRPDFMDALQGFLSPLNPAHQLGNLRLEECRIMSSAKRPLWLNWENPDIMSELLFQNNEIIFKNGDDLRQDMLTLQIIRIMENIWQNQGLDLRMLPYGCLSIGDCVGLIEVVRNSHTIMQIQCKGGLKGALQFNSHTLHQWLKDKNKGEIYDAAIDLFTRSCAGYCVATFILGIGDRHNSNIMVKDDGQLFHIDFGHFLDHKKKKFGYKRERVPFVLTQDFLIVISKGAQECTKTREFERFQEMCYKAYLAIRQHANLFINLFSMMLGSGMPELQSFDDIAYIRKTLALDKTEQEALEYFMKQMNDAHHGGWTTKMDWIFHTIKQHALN
T1 sequence (P27986 2-724, further chain): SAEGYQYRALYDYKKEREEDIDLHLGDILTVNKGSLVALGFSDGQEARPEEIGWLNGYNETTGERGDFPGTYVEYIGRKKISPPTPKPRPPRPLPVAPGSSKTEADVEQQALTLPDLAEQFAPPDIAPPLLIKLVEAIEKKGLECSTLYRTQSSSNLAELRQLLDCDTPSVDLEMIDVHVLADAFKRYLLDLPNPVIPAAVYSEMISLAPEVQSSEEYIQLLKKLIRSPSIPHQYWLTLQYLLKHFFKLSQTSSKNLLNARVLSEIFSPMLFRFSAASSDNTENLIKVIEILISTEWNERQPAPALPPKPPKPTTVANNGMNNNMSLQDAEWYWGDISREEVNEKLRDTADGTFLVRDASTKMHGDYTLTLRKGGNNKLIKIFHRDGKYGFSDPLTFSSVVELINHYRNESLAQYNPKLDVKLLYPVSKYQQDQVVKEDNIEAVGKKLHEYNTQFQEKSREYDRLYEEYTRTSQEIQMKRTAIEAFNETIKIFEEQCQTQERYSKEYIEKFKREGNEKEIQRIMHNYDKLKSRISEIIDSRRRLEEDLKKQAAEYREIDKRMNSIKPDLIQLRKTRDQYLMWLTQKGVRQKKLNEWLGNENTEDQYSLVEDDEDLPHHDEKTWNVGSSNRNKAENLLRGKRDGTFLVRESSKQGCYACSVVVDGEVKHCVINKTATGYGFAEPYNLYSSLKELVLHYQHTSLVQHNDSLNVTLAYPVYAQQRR

IC50 (recombinant mTOR; [1]) | further results | Structure (SMILES)
478 nM | IC50 (recombinant mTOR; single values measured on two occasions, read-out: IC50 versus mTOR kinase, Test (a)(i)): 566 nM and 404 nM; IC50 (PI3K): 37000 nM; IC50 (Serine 473 in Akt): 3360 nM | C[C@H]1COCCN1c1cc(CS(C)(=O)=O)nc(-c2ccc3cc[nH]c3c2)n1 [Example 35, 6-[4-[(3S)-3-Methylmorpholin-4-yl]-6-(methylsulfonylmethyl)pyrimidin-2-yl]-1H-indole]
1640 nM | – | C[C@H]1COCCN1c1cc(CS(C)(=O)=O)nc(-c2ccc3c(C(N)=O)c[nH]c3c2)n1 [Example 36, 6-[4-[(3S)-3-Methylmorpholin-4-yl]-6-(methylsulfonylmethyl)pyrimidin-2-yl]-1H-indole-3-carboxamide]
336 nM | – | C[C@H]1COCCN1c1cc(CS(C)(=O)=O)nc(-c2ccc3[nH]c(C(N)=O)cc3c2)n1 [Example 37, 5-[4-[(3S)-3-Methylmorpholin-4-yl]-6-(methylsulfonylmethyl)pyrimidin-2-yl]-1H-indole-2-carboxamide]
5350 nM | – | C[C@H]1COCCN1c1cc(CS(C)(=O)=O)nc(-c2ccc3cc(C(N)=O)[nH]c3c2)n1 [Example 38, 6-[4-[(3S)-3-Methylmorpholin-4-yl]-6-(methylsulfonylmethyl)pyrimidin-2-yl]-1H-indole-2-carboxamide]
192 nM | – | C[C@H]1COCCN1c1cc(C(C)(C)S(C)(=O)=O)nc(-c2ccc3[nH]cnc3c2)n1 [Example 39, 5-[4-[(3S)-3-Methylmorpholin-4-yl]-6-(2-methylsulfonylpropan-2-yl)pyrimidin-2-yl]-1H-benzoimidazole]
588 nM | – | C[C@H]1COCCN1c1cc(C(C)(C)S(C)(=O)=O)nc(-c2cnc3[nH]ccc3c2)n1 [Example 40, 3-[4-[(3S)-3-Methylmorpholin-4-yl]-6-(2-methylsulfonylpropan-2-yl)pyrimidin-2-yl]-5,7-diazabicyclo[4.3.0]nona-1,3,5,8-tetraene]
117 nM | – | C[C@H]1COCCN1c1cc(C(C)(C)S(C)(=O)=O)nc(-c2ccc3[nH]ccc3c2)n1 [Example 41, 5-[4-[(3S)-3-methylmorpholin-4-yl]-6-(2-methylsulfonylpropan-2-yl)pyrimidin-2-yl]-1H-indole]
335 nM | – | C[C@H]1COCCN1c1cc(C(C)(C)S(C)(=O)=O)nc(-c2cccc3[nH]ccc23)n1 [Example 42, 4-[4-[(3S)-3-methylmorpholin-4-yl]-6-(2-methylsulfonylpropan-2-yl)pyrimidin-2-yl]-1H-indole]
880 nM | – | C[C@H]1COCCN1c1cc(C(C)(C)S(C)(=O)=O)nc(-c2ccc3cc[nH]c3c2)n1 [Example 43, 6-[4-[(3S)-3-methylmorpholin-4-yl]-6-(2-methylsulfonylpropan-2-yl)pyrimidin-2-yl]-1H-indole]
366 nM | – | C[C@H]1COCCN1c1cc(CS(=O)(=O)c2ccccc2)nc(-c2cccc3[nH]ccc23)n1 [Example 44, 4-[4-(Benzenesulfonylmethyl)-6-[(3S)-3-methylmorpholin-4-yl]pyrimidin-2-yl]-1H-indole]
119 nM | – | C[C@H]1COCCN1c1cc(CS(=O)(=O)c2ccccc2)nc(-c2ccc3[nH]ccc3c2)n1 [Example 45, 5-[4-(benzenesulfonylmethyl)-6-[(3S)-3-methylmorpholin-4-yl]pyrimidin-2-yl]-1H-indole]
932 nM | – | C[C@H]1COCCN1c1cc(CS(=O)(=O)c2ccccc2)nc(-c2cnc3[nH]ccc3c2)n1 [Example 46, 3-[4-(benzenesulfonylmethyl)-6-[(3S)-3-methylmorpholin-4-yl]pyrimidin-2-yl]-5,7-diazabicyclo[4.3.0]nona-1,3,5,8-tetraene]
512 nM | – | C[C@H]1COCCN1c1cc(CS(=O)(=O)c2ccccc2)nc(-c2ccc3cc[nH]c3c2)n1 [Example 47, 6-[4-(benzenesulfonylmethyl)-6-[(3S)-3-methylmorpholin-4-yl]pyrimidin-2-yl]-1H-indole]
108 nM | – | C[C@H]1COCCN1c1cc(CS(=O)(=O)c2ccccc2)nc(-c2ccc3[nH]cnc3c2)n1 [Example 48, 5-[4-(benzenesulfonylmethyl)-6-[(3S)-3-methylmorpholin-4-yl]pyrimidin-2-yl]-1H-benzoimidazole]
